Values of other authors in PubChem BioAssay AID1259409 (Chemical Carcinogenesis Research Information System (CCRIS), 2018).

System: rodent chemically induced tumor inhibition, incidence and multiplicity
Assay: CCRIS tumor inhibitor studies
Settings: Route [Inhibitor]: ORAL, Species: RAT, Promoter: NONE USED

In the case of `O=C1O[C@H]([C@@H](O)CO)C(O)=C1O`, the “tumour outcome (control, treated, inhibition, significance)” value (Carcinogen: N-ETHYL-N-(4-HYDROXYBUTYL)NITROSAMINE, 54897-62-0, Dose [Inhibitor]: 5% IN BASAL DIET ADMINISTERED SIMULTANEOUSLY WITH CARCINOGEN DOSE FOR 20 WK (STUDY DURATION: 20 WK), Strain/Sex: F344/MALE, Target Tissue: Type of Lesion: BLADDER: PAPILLOMA, Dose [Carcinogen]: 0.021% IN DRINKING WATER FOR 20 WK) is listed as 14/15 (93%), 12/15 (80%), 14%, not significant, the “tumour outcome (control, treated, inhibition, significance)” value (Carcinogen: N-METHYL-N-NITROSOUREA, 684-93-5, Dose [Inhibitor]: 0, 5% IN DIET BEGINNING POST CARCINOGEN TREATMENT AND CONTINUING FOR 23 WK (STUDY DURATION: 25 WK), Strain/Sex: F344/MALE, Target Tissue: Type of Lesion: FORESTOMACH: PAPILLOMA, Dose [Carcinogen]: 50 MG/KG 4/2 WK) is listed as 8/17 (47%), 7/20 (35%), 26%, not calculated and the “tumour outcome (control, treated, inhibition, significance)” value (Carcinogen: N-METHYL-N-NITROSOUREA, 684-93-5, Dose [Inhibitor]: 0, 5% IN DIET BEGINNING POST CARCINOGEN TREATMENT AND CONTINUING FOR 23 WK (STUDY DURATION: 25 WK), Strain/Sex: F344/MALE, Target Tissue: Type of Lesion: FORESTOMACH: SQUAMOUS CELL CARCINOMA, Dose [Carcinogen]: 50 MG/KG 4/2 WK) is listed as 2/17 (12%), 2/20 (10%), 17%, not calculated. For the same compound, the “tumour outcome (control, treated, inhibition, significance)” value (Carcinogen: N-METHYL-N-NITROSOUREA, 684-93-5, Dose [Inhibitor]: 0, 5% IN DIET BEGINNING POST CARCINOGEN TREATMENT AND CONTINUING FOR 23 WK (STUDY DURATION: 25 WK), Strain/Sex: F344/MALE, Target Tissue: Type of Lesion: HEMATOPOIETIC SYSTEM: LYMPHOMA OR LEUKEMIA, Dose [Carcinogen]: 50 MG/KG 4/2 WK) was 3/17 (18%), 4/20 (20%), -11%, not calculated, the “tumour outcome (control, treated, inhibition, significance)” value (Carcinogen: N-METHYL-N-NITROSOUREA, 684-93-5, Dose [Inhibitor]: 0, 5% IN DIET BEGINNING POST CARCINOGEN TREATMENT AND CONTINUING FOR 23 WK (STUDY DURATION: 25 WK), Strain/Sex: F344/MALE, Target Tissue: Type of Lesion: SMALL INTESTINE: ADENOCARCINOMA, Dose [Carcinogen]: 50 MG/KG 4/2 WK) was 9/17 (53%), 0/20 (0%), 100%, not calculated and the “tumour outcome (control, treated, inhibition, significance)” value (Carcinogen: N-METHYL-N-NITROSOUREA, 684-93-5, Dose [Inhibitor]: 0, 5% IN DIET BEGINNING POST CARCINOGEN TREATMENT AND CONTINUING FOR 23 WK (STUDY DURATION: 25 WK), Strain/Sex: F344/MALE, Target Tissue: Type of Lesion: SMALL INTESTINE: ADENOMA, Dose [Carcinogen]: 50 MG/KG 4/2 WK) was 10/17 (59%), 16/20 (80%), -36%, not calculated. The “tumour outcome (control, treated, inhibition, significance)” value (Carcinogen: N-METHYL-N-NITROSOUREA, 684-93-5, Dose [Inhibitor]: 0, 5% IN DIET BEGINNING POST CARCINOGEN TREATMENT AND CONTINUING FOR 23 WK (STUDY DURATION: 25 WK), Strain/Sex: F344/MALE, Target Tissue: Type of Lesion: THYROID: ADENOCARCINOMA, Dose [Carcinogen]: 50 MG/KG 4/2 WK) was 1/17 (6%), 0/20 (0%), 100%, not calculated, the “tumour outcome (control, treated, inhibition, significance)” value (Carcinogen: N-METHYL-N-NITROSOUREA, 684-93-5, Dose [Inhibitor]: 0, 5% IN DIET BEGINNING POST CARCINOGEN TREATMENT AND CONTINUING FOR 23 WK (STUDY DURATION: 25 WK), Strain/Sex: F344/MALE, Target Tissue: Type of Lesion: THYROID: ADENOMA, Dose [Carcinogen]: 50 MG/KG 4/2 WK) was 3/17 (18%), 6/20 (30%), -67%, not calculated and the “tumour outcome (control, treated, inhibition, significance)” value (Carcinogen: N-METHYL-N-NITROSOUREA, 684-93-5, Dose [Inhibitor]: 0, 5% IN DIET BEGINNING POST CARCINOGEN TREATMENT AND CONTINUING FOR 23 WK (STUDY DURATION: 25 WK), Strain/Sex: F344/MALE, Target Tissue: Type of Lesion: TONGUE: PAPILLOMA, Dose [Carcinogen]: 50 MG/KG 4/2 WK) was 2/17 (12%), 4/20 (20%), -67%, not calculated. For the same compound, the “tumour outcome (control, treated, inhibition, significance)” value (Carcinogen: N-METHYL-N-NITROSOUREA, 684-93-5, Dose [Inhibitor]: 0, 5% IN DIET BEGINNING POST CARCINOGEN TREATMENT AND CONTINUING FOR 23 WK (STUDY DURATION: 25 WK), Strain/Sex: F344/MALE, Target Tissue: Type of Lesion: TONGUE: SQUAMOUS CELL CARCINOMA, Dose [Carcinogen]: 50 MG/KG 4/2 WK) was 2/17 (12%), 2/20 (10%), 17%, not calculated, the “tumour outcome (control, treated, inhibition, significance)” value (Carcinogen: N-METHYL-N-NITROSOUREA, 684-93-5, Dose [Inhibitor]: 0, 5% IN DIET BEGINNING POST CARCINOGEN TREATMENT AND CONTINUING FOR 23 WK (STUDY DURATION: 25 WK), Strain/Sex: F344/MALE, Target Tissue: Type of Lesion: URINARY BLADDER: PAPILLOMA, Dose [Carcinogen]: 50 MG/KG 4/2 WK) was 2/17 (12%), 10/20 (50%), -316%, not calculated and the outcome (Carcinogen: N-METHYL-N-NITROSOUREA, 684-93-5, Dose [Inhibitor]: 0, 5% IN DIET BEGINNING POST CARCINOGEN TREATMENT AND CONTINUING FOR 23 WK (STUDY DURATION: 25 WK), Strain/Sex: F344/MALE, Target Tissue: Type of Lesion: URINARY BLADDER: TRANSITIONAL CELL CARCINOMA, Dose [Carcinogen]: 50 MG/KG 4/2 WK) was 0/17 (0%), 2/20 (10%), -100%, not calculated. For the same compound, the “tumour outcome (control, treated, inhibition, significance)” value (Carcinogen: N-METHYL-N-NITROSOUREA, 684-93-5, Dose [Inhibitor]: 1% IN 20% FAT DIET DAILY STARTING 2 WK BEFORE START OF CARCINOGEN TREATMENT AND CONTINUING FOR DURATION OF STUDY (STUDY, Strain/Sex: F344/FEMALE, Target Tissue: Type of Lesion: COLON: ADENOMA, ADENOCARCINOMA, Dose [Carcinogen]: 2 MG 2/WK FOR 2 WK) was 42%, 46%, -10%, not significant.
